The source of these data is patent EP4582423A1, “NOVEL TRICYCLIC DERIVATIVE COMPOUND AND USES THEREOF” (Hanmi Pharm. Co., Ltd., priority 2022, dated 2024).

This assay concerns HCT116 MTAP-/- cells. Kind of assay: Cell growth inhibition test (SRB staining). Type of assay: cell-based. To be noted: Homo sapiens, HCT-116, 144 h; HCT116 MTAP-/- cells, 0.64 nM - 2,000 nM, 6 dose points, 6 days, SRB staining, absorbance at 540 nm; read-out: HCT116 MTAP-/- cell growth inhibition (GI50). As to the method:
The synthetic compounds above were tested for cell growth inhibition against HCT116 cells.
HCT116 MTAP-/- (homozygous knockout of MTAP gene in HCT116 MTAP-WT cells by CRISPER/Cas9 method) cells were maintained in RPMI1640 medium containing 10 % FBS and 1 % penicillin-streptomycin. Approximately 5×10^2 cells were seeded in a 96-well plate and treated with a test compound. (0.64 nM - 2,000 nM, 6 dose points for HCT116 MTAP-/- cells for 5x and 6 days) cell growth was measured by SRB staining and absorbance was detected at 540 nm on a Synergy™ NEO microplate reader. The 50 % growth inhibition value (GI50) of the cell line was calculated using GraphPad Prism V9 software.
In general terms: The SRB assay estimates cell density from bound dye.
For `Cc1ncccc1-n1c(=O)c2nc(Cc3ccc4c(c3)OCO4)n(C)c2c2ccc(Cl)cc21` [Compound 29, 2-(benzo[d][1,3]dioxol-5-ylmethyl)-7-chloro-1-methyl-5-(2-methylpyridin-3-yl)-1,5-dihydro-4H-imidazo[4,5-c]quinolin-4-one], the GI50 was under 100 nM. For `COc1ccc(N(C)c2nc3c(=O)n(-c4ccccc4)c4cc(Cl)ccc4c3n2C)cc1` [Compound 41, 7-chloro-2-((4-methoxyphenyl)(methyl)amino)-1-methyl-5-phenyl-1,5-dihydro-4H-imidazo[4,5-c]quinolin-4-one] the value was over 1000 nM; for `Cc1ncccc1-n1c(=O)c2nc(Sc3ccc(F)cc3F)n(C)c2c2ccc(Cl)cc21` [Compound 39, 7-chloro-2-((2,4-difluorophenyl)thio)-1-methyl-5-(2-methylpyridin-3-yl)-1,5-dihydro-4H-imidazo[4,5-c]quinolin-4-one], under 100 nM; for `COc1ccc(Cc2nc3c(=O)n(-c4ccccc4)c4cc(Cl)ccc4c3n2C)cc1` [Compound 2, 7-chloro-2-(4-methoxybenzyl)-1-methyl-5-phenyl-1,5-dihydro-4H-imidazo[4,5-c]quinolin-4-one], under 100 nM. For `CNc1ccc2c3c(nc(Cc4ccc(OC)cc4)n3C)c(=O)n(-c3cccnc3C)c2c1` [Compound 53, 2-(4-methoxybenzyl)-1-methyl-7-(methylamino)-5-(2-methylpyridin-3-yl)-1,5-dihydro-4H-imidazo[4,5-c]quinolin-4-one], the GI50 was under 100 nM. Turning to `COc1ccc(Cc2nc3c(=O)n(-c4cccnc4)c4cc(Cl)ccc4c3n2C)cc1` [Compound 31, 7-chloro-2-(4-methoxybenzyl)-1-methyl-5-(pyridin-3-yl)-1,5-dihydro-4H-imidazo[4,5-c]quinolin-4-one], the GI50 is under 100 nM. With `Cc1ncccc1-n1c(=O)c2nc(Sc3ccc(F)cc3)n(C)c2c2ccc(Cl)cc21` [Compound 36, 7-chloro-2-((4-fluorophenyl)thio)-1-methyl-5-(2-methylpyridin-3-yl)-1,5-dihydro-4H-imidazo[4,5-c]quinolin-4-one] the figure was under 100 nM; with `COc1ccc(Cc2nc3c(=O)n(-c4cccnc4C)c4nc(C(F)(F)F)ccc4c3n2C)cc1` [Compound 57, 2-(4-methoxybenzyl)-1-methyl-5-(2-methylpyridin-3-yl)-7-(trifluoromethyl)-1,5-dihydro-4H-imidazo[4,5-c][1,8]naphthyridin-4-one], under 100 nM; with `COc1ccc(Cc2nc3c(=O)n(-c4cccnc4C)c4cc(C(C)C)ccc4c3n2C)cc1` [Compound 48, 7-isopropyl-2-(4-methoxybenzyl)-1-methyl-5-(2-methylpyridin-3-yl)-1,5-dihydro-4H-imidazo[4,5-c]quinolin-4-one], 100 to 500 nM. Turning to `COc1ccc([S+]([O-])c2nc3c(=O)n(-c4ccccc4)c4cc(Cl)ccc4c3n2C)cc1` (stereo not shown) [Compound 20, 7-chloro-2-((4-methoxyphenyl)sulfinyl)-1-methyl-5-phenyl-1,5-dihydro-4H-imidazo[4,5-c]quinolin-4-one], the GI50 is 500 to 1000 nM. With `COc1cccc(Cc2nc3c(=O)n(-c4ccccc4)c4cc(Cl)ccc4c3n2C)c1` [Compound 4, 7-chloro-2-(3-methoxybenzyl)-1-methyl-5-phenyl-1,5-dihydro-4H-imidazo[4,5-c]quinolin-4-one] the figure was under 100 nM; with `Cn1c(Cc2ccc(Cl)cc2)nc2c(=O)n(-c3ccccc3)c3cc(Cl)ccc3c21` [Compound 6, 7-chloro-2-(4-chlorobenzyl)-1-methyl-5-phenyl-1,5-dihydro-4H-imidazo[4,5-c]quinolin-4-one], 100 to 500 nM.

With `COc1ccc(Cc2nc3c(=O)n(-c4ccc(F)c(Cl)c4)c4cc(Cl)ccc4c3n2C)cc1` [Compound 17, 7-chloro-5-(3-chloro-4-fluorophenyl)-2-(4-methoxybenzyl)-1-methyl-1,5-dihydro-4H-imidazo[4,5-c]quinolin-4-one], the GI50 was over 1000 nM. With `COc1ccc(Cc2nc3c(=O)n(-c4cccnc4C)c4cc(N)ccc4c3n2C)cc1` [Compound 52, 7-amino-2-(4-methoxybenzyl)-1-methyl-5-(2-methylpyridin-3-yl)-1,5-dihydro-4H-imidazo[4,5-c]quinolin-4-one], the GI50 was 500 to 1000 nM. Turning to `COc1ccc(Cc2nc3c(=O)n(-c4ccccc4)c4nc(NCC(F)(F)F)ccc4c3n2C)cc1` [Compound 15, 2-(4-methoxybenzyl)-1-methyl-5-phenyl-7-((2,2,2-trifluoroethyl)amino)-1,5-dihydro-4H-imidazo[4,5-c][1,8]naphthyridin-4-one], the GI50 was over 1000 nM.

For the compound `COc1ccc(Cc2nc3c(=O)n(-c4cccnc4C4CC4)c4cc(Cl)ccc4c3n2C)cc1` [Compound 24, 7-chloro-5-(2-cyclopropylpyridin-3-yl)-2-(4-methoxybenzyl)-1-methyl-1,5-dihydro-4H-imidazo[4,5-c]quinolin-4-one], the GI50 was in the range of 100 to 500 nM. For `Cc1ncccc1-n1c(=O)c2nc(Cc3ccc(OC(F)F)cc3)n(C)c2c2ccc(C(F)(F)F)nc21` [Compound 58, 2-(4-(Difluoromethoxy)benzyl)-1-methyl-5-(2-methylpyridin-3-yl)-7-(trifluoromethyl)-1,5-dihydro-4H-imidazo[4,5-c][1,8]naphthyridin-4-one] the value was under 100 nM. For `COc1ccc(S(=O)(=O)c2nc3c(=O)n(-c4ccccc4)c4cc(Cl)ccc4c3n2C)cc1` [Compound 19, 7-chloro-2-((4-methoxyphenyl)sulfonyl)-1-methyl-5-phenyl-1,5-dihydro-4H-imidazo[4,5-c]quinolin-4-one] the value was 500 to 1000 nM; for `COc1ccc(Cc2nc3c(=O)n(-c4ccccc4Cl)c4cc(Cl)ccc4c3n2C)cc1` [Compound 26, 7-chloro-5-(2-chlorophenyl)-2-(4-methoxybenzyl)-1-methyl-1,5-dihydro-4H-imidazo[4,5-c]quinolin-4-one], 100 to 500 nM; for `Cc1ncccc1-n1c(=O)c2nc(Sc3ccc(F)c(F)c3)n(C)c2c2ccc(Cl)cc21` [Compound 37, 7-chloro-2-((3,4-difluorophenyl)thio)-1-methyl-5-(2-methylpyridin-3-yl)-1,5-dihydro-4H-imidazo[4,5-c]quinolin-4-one], under 100 nM. `Cn1c(CCc2ccccc2)nc2c(=O)n(-c3ccccc3)c3cc(Cl)ccc3c21` [Compound 9, 7-chloro-1-methyl-2-phenethyl-5-phenyl-1,5-dihydro-4H-imidazo[4,5-c]quinolin-4-one]: the GI50 was over 1000 nM. As for `COc1ccc(Cc2nc3c(=O)n(-c4cccnc4C)c4ccccc4c3n2C)cc1` [Compound 22, 2-(4-methoxybenzyl)-1-methyl-5-(2-methylpyridin-3-yl)-1,5-dihydro-4H-imidazo[4,5-c]quinolin-4-one], the GI50 lay within 500 to 1000 nM.

For the compound `Cn1c(Cc2ccc(O)cc2)nc2c(=O)n(-c3ccccc3)c3cc(Cl)ccc3c21` [Compound 3, 7-chloro-2-(4-hydroxybenzyl)-1-methyl-5-phenyl-1,5-dihydro-4H-imidazo[4,5-c]quinolin-4-one], the GI50 was over 1000 nM. For `COc1ccc(Cc2nc3c(=O)n(-c4ccc(F)cc4)c4cc(Cl)ccc4c3n2C)cc1` [Compound 32, 7-chloro-5-(4-fluorophenyl)-2-(4-methoxybenzyl)-1-methyl-1,5-dihydro-4H-imidazo[4,5-c]quinolin-4-one] the value was over 1000 nM.

On to `COc1ccc(Cc2nc3c(=O)n(-c4cccnc4C)c4cc(O)ccc4c3n2C)cc1` [Compound 43, 7-Hydroxy-2-(4-methoxybenzyl)-1-methyl-5-(2-methylpyridin-3-yl)-1,5-dihydro-4H-imidazo[4,5-c]quinolin-4-one], for which the GI50 was over 1000 nM.

For `COc1ccc(Nc2nc3c(=O)n(-c4ccccc4)c4cc(Cl)ccc4c3n2C)cc1` [Compound 40, 7-chloro-2-((4-methoxyphenyl)amino)-1-methyl-5-phenyl-1,5-dihydro-4H-imidazo[4,5-c]quinolin-4-one], the GI50 is over 1000 nM. As to `Cc1ncccc1-n1c(=O)c2nc(Cc3ccc(F)cc3)n(C)c2c2ccc(Cl)cc21` [Compound 28, 7-chloro-2-(4-fluorobenzyl)-1-methyl-5-(2-methylpyridin-3-yl)-1,5-dihydro-4H-imidazo[4,5-c]quinolin-4-one], the GI50 is under 100 nM.

Consider `COc1ccc(Cc2nc3c(=O)n(-c4cccnc4C)c4cc(OC)ccc4c3n2C)cc1` [Compound 51, 7-methoxy-2-(4-methoxybenzyl)-1-methyl-5-(2-methylpyridin-3-yl)-1,5-dihydro-4H-imidazo[4,5-c]quinolin-4-one], for which the GI50 is under 100 nM. For `Cc1ncccc1-n1c(=O)c2nc(Cc3ccc(OC(F)F)cc3)n(C)c2c2ccc(Cl)cc21` [Compound 33, 7-chloro-2-(4-(difluoromethoxy)benzyl)-1-methyl-5-(2-methylpyridin-3-yl)-1,5-dihydro-4H-imidazo[4,5-c]quinolin-4-one] the value was under 100 nM; for `COc1ccc(Cc2nc3c(=O)n(-c4ccccc4C(F)(F)F)c4cc(Cl)ccc4c3n2C)cc1` [Compound 25, 7-chloro-2-(4-methoxybenzyl)-1-methyl-5-(2-(trifluoromethyl)phenyl)-1,5-dihydro-4H-imidazo[4,5-c]quinolin-4-one], 100 to 500 nM; for `C=Cc1ccc2c3c(nc(Cc4ccc(OC)cc4)n3C)c(=O)n(-c3cccnc3C)c2c1` [Compound 44, 2-(4-methoxybenzyl)-1-methyl-5-(2-methylpyridin-3-yl)-7-vinyl-1,5-dihydro-4H-imidazo[4,5-c]quinolin-4-one], under 100 nM.
